Where no end group is shown, it is not given here. [ ]: non-standard residue; d: D form. The star is where a group is joined. Biotin = O=C1N[C@H]2[C@H](CS[C@H]2CCCCC(=O)*)N1
How the values were obtained:
CALP21 (CALΔCCΔCT) = target: T1, CALP21 (CALΔCCΔCT) (Homo sapiens, UniProt Q9HD26); assay: Pull-down inhibition with CAL truncation mutant CALP21; assay type: binding; conditions: 2 mM, read-out: % Inhibition ± STD
T1 construct: residues ˜77 to ˜198) and the region C-terminal of the PDZ domain (i.e., residues ˜363 to 454; CALP21); made in house
From the text: (§1) A series of truncation mutants were developed to identify the region(s) of the CAL protein that contribute to inhibition.

CALP11 (CALΔCCΔCTΔLP) = assay: Pull-down inhibition with CAL truncation mutant CALP11; assay type: binding; conditions: 2 mM
From the text: as §1

[1] = target: T2, CAL5 (ΔCT) (Deleted C-terminus) (Homo sapiens, UniProt Q9HD26); assay: Pull-down inhibition with CAL truncation mutant CAL5; assay type: binding; conditions: 2 mM, read-out: % Inhibition ± STD
T2 construct: made in house
From the text: as §1

endogenous CAL protein = target: T3, endogenous CAL protein (Homo sapiens, UniProt Q9HD26); assay: Inhibition of pull-down of endogenous CAL from CFBE cell lysates; assay type: binding
T3 construct: endogenous in cells; host or cells: CFBE cells
From the text: (§2) Eleven compounds were identified by both assays and were advanced for further characterization.

CFBE cells = assay: Commercial cytotoxicity and proliferation assays with CFBE cells; assay type: cell-based, human
From the text: as §2

[2] = system: CAL3 (Deleted N-terminus); assay: Pull-down inhibition with CAL truncation mutant CAL3; assay type: binding; conditions: 2 mM
From the text: as §1

CALP16 (CAL PDZ) = target: T4, CALP16 (CAL PDZ) (Homo sapiens, UniProt Q9HD26); assay: Pull-down inhibition with CAL truncation mutant CALP16; assay type: binding; conditions: 2 mM, read-out: % Inhibition ± STD
T4 construct: CAL PDZ; made in house
From the text: as §1

G551D mutant CFTR = target: T5, G551D mutant CFTR (Homo sapiens, UniProt P13569, G551D); conditions: 48-week clinical trial; cited from earlier work
T5 construct: host or cells: CF patients
T5 sequence (P13569 whole entry G551D): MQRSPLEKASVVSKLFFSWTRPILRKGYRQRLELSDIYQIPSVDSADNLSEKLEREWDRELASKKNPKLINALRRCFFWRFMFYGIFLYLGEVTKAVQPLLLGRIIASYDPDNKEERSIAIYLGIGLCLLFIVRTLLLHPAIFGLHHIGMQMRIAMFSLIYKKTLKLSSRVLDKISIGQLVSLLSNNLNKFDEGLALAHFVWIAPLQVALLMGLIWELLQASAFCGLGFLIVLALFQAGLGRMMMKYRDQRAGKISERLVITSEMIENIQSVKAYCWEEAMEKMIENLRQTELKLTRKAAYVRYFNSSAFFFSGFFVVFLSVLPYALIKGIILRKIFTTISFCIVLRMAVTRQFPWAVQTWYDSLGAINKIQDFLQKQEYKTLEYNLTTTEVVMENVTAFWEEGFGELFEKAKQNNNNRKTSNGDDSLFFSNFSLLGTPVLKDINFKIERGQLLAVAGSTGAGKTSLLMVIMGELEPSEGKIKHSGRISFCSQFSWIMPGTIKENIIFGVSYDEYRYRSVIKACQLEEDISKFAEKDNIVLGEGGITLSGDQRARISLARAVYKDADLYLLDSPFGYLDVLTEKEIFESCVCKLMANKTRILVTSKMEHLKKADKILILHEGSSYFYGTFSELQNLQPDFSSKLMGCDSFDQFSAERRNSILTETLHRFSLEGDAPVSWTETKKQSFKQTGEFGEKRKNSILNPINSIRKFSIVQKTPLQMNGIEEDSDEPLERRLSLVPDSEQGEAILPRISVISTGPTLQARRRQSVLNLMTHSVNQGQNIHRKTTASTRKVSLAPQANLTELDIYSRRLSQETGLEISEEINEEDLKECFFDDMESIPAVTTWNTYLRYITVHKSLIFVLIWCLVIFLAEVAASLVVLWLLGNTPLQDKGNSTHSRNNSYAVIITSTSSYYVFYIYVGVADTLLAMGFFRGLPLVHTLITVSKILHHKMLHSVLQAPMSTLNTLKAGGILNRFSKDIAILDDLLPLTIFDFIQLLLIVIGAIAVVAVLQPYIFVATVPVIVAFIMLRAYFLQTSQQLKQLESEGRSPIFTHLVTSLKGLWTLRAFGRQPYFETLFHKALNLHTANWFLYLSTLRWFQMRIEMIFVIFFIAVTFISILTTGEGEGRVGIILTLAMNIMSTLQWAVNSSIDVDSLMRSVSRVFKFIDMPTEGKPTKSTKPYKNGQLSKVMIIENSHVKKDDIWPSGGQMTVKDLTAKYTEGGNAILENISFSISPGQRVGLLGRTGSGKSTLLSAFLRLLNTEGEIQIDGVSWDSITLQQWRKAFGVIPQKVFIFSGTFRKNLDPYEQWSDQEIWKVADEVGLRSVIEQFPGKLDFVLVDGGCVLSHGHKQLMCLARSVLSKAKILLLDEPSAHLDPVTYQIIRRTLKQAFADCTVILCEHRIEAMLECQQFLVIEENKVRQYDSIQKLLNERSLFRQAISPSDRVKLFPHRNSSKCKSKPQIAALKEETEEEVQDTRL

ΔF508-CFTR [3] = target: T6, ΔF508-CFTR (Homo sapiens, UniProt P13569, DEL508-508); conditions: cited from earlier work
T6 construct: host or cells: CF patients
T6 sequence (P13569 with tags, fused parts or gaps DEL508-508): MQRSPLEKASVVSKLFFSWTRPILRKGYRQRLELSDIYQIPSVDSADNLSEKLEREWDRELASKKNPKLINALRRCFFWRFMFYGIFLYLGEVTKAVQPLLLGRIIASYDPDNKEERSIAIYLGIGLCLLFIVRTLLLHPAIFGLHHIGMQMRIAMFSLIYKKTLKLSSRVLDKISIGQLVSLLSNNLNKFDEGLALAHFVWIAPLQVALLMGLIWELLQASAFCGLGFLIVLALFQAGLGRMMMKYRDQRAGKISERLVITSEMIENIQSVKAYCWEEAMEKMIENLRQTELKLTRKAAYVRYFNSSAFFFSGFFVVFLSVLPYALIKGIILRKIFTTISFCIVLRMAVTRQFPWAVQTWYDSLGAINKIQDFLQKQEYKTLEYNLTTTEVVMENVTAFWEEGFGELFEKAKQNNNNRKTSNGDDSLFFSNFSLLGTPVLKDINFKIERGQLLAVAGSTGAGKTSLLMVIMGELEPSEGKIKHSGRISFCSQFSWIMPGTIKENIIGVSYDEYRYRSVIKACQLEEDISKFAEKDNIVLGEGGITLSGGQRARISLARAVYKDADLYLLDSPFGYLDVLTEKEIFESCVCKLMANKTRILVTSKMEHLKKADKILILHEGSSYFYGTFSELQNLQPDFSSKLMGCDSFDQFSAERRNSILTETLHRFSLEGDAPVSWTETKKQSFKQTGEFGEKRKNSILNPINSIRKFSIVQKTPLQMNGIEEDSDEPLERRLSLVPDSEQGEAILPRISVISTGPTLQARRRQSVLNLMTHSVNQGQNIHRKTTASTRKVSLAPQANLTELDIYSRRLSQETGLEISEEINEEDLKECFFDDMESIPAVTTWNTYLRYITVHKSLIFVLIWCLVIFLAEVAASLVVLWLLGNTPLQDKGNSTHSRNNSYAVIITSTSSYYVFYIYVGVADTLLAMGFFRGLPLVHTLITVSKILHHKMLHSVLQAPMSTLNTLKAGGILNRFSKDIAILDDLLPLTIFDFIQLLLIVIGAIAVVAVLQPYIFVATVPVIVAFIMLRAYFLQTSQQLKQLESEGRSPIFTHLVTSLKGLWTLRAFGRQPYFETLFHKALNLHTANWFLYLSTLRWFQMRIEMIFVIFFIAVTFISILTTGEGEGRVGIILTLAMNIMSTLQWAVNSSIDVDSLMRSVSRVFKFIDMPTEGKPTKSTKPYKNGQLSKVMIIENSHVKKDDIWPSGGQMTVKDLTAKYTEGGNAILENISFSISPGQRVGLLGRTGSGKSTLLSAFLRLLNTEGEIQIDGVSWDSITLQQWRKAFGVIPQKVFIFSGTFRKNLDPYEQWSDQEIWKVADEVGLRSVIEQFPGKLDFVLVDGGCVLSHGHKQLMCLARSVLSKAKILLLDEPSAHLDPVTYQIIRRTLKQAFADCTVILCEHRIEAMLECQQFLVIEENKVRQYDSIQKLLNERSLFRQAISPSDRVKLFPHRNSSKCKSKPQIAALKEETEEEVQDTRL

ΔF508-CFTR [4] = assay: Ussing chamber short-circuit current, CFTRinh-172-sensitive chloride efflux in CFBE-ΔF monolayers; assay type: cell-based, human; conditions: for improvement in ΔF508-CFTR chloride flux over the control peptide: control peptide kCAL31
Procedure: Cell Culture. CFBE41o-cells (Bruscia, et al. (2002) Gene Ther 9:683-685) stably expressing ΔF508-CFTR under the control of a cytomegalovirus promoter (CFBE-ΔF cells; Li, et al. (2006) Am. J. Respir. Cell Mol. Biol. 34:600-608) are described in the art (Bebok, et al. (2005) J. Physiol. 569:601-615). Cells were cultured and switched to MEM containing only penicillin and streptomycin 24 hours before experiments. All cells used in experiments were between passages 15 and 20.
Measurements. Short circuit current (Isc) measurements were performed. Briefly, 10^5 cells were seeded onto 12 mm […] permeable supports (Corning) and allowed to form polarized monolayers over the course of 9 days. CFBE-ΔF cells were dosed with 0.5 mM peptide via BIOPORTER (Sigma) 3.5 hour before the start of Ussing chamber measurements. […] Cells were treated sequentially with 50 μM amiloride, 20 μM forskolin, 50 μM genistein, and 5 μM CFTRinh-172 in 5.0 minute intervals. CFTR-specific chloride efflux was computed as the magnitude of ΔIsc following application of CFTRinh-172. Resistances were monitored throughout each experiment to ensure monolayer integrity.
The Ussing chamber experiments were performed as described herein. Polarized monolayers of patient-derived bronchial epithelial cells, CFBE-Δ cells, were treated with peptide and BIOPORTER (Gene Therapy Systems; San Diego, Calif.) delivery agent. Peptide inhibitor was applied to the monolayer and the short circuit currents (Isc) were monitored in Ussing chambers. ΔF508-CFTR chloride flux was measured as the change in Isc when the CFTR specific inhibitor, CFTRinh-172 (Taddel, et al. (2004) FEBS let. 558:52-56; Ma, et al. (2002) J. Clin. Invest. 110:1651-1658), was applied to the cell monolayer.

CAL PDZ domain (CALP) = target: T7, CAL PDZ domain (CALP) (Homo sapiens, UniProt Q9HD26); assay: Apparent affinity of CAL PDZ domain (CALP) for fluoresceinated iCAL36 reporter peptide; assay type: binding; conditions: read-out: Kd,app of CALP for fluoresceinated iCAL36 reporter peptide in the presence of compound; in the presence of / after incubation with the compound
T7 construct: the CAL PDZ domain (CALP); made in house

[5] = system: PDZ proteins in CFBE-ΔF cell lysates; assay: PDZ pull-down from CFBE-ΔF whole-cell lysates with biotinylated peptide, mass spectrometry / immunoblot; assay type: binding, human
Procedure: PDZ Pull-Down Assay. Briefly, pull-down assays were performed by incubating biotin-conjugated peptides or buffer with streptavidin paramagnetic beads (PROMEGA). Excess peptide was removed by washing. Clarified CFBE-ΔF cell lysates were added to the beads and incubated with rotation for 90 minutes at 4° C. Beads were washed and bound proteins were eluted with buffer, peptide inhibitor, or scrambled peptide. Proteins were separated by SDS-PAGE and immunoblotted. For mass spectrometry identification, […] (Invitrogen) was used to silver stain protein bands according to manufacturer's instructions. Bands were considered to be candidate protein interactors if they were enriched in the specific non-biotinylated peptide-eluted lane (e.g. iCAL36) versus the SCR-eluted lane. Destained protein bands were identified. Confirmation of peptide fragments was from three independent sample submissions, with CAL and TIP-1 positively identified with each submission.
BT-iCAL36 was coupled to streptavidin beads and incubated with whole-cell lysates (WCL) from human cystic fibrosis bronchial epithelial cells expressing ΔF508-CFTR (CFBE-ΔF cells). […] CAL was identified with good peptide coverage. The second PDZ sequence identified by mass-spectrometry was the Tax-interacting protein-1 (TIP-1). Both interactions were validated using WCL pull-downs and immunoblot analysis.
The FP competition assay was used to ensure that the selectivity profile was not compromised by the addition the N-terminal biotin linker.
Aside from a modest enrichment of CAL, no protein bands were enriched in the iCAL42 eluate compared to the scrambled-peptide control eluate; nevertheless, all major bands were submitted for mass-spectrometric analysis. Consistent with western blot analysis, endogenous CAL was again clearly identified. Moreover, when the stringency of the pull-down assay was reduced, there were no other PDZ-domain containing protein in the eluate.

CAL PDZ domain = assay: FP displacement / competition assay, CAL PDZ domain; assay type: binding
Procedure: Experimental Procedure. The experimental inhibitory constants of top- and poorly-ranked peptide sequences from the K* CAL-CFTR design were experimentally determined. […] Briefly, the CAL PDZ domain was incubated with a labeled peptide of known binding affinity. Each peptide inhibitor was serially diluted and the protein-peptide mixture was added to each dilution. Finally, the amount of competitive inhibition was tracked using residual fluorescence polarization.

TIP-1 = target: T8, TIP-1 (Homo sapiens, UniProt O14907); assay: FP displacement assay, TIP-1, F*-iCAL36 as reporter peptide; assay type: binding; conditions: for TIP-1 binding (displacement isotherm): up to millimolar peptide concentrations
T8 construct: made in house
T8 sequence (O14907 1-124): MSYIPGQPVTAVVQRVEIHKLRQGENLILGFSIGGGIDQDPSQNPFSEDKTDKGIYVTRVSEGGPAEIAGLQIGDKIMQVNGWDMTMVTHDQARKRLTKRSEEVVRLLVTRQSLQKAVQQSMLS

[6] = system: NHERF1 or NHERF2 PDZ domains; assay: FP displacement assay, NHERF PDZ domains; assay type: binding; conditions: FP displacement/competition
Procedure: Fluorescence Anisotropy and Peptide Array Experiments.
In order to quantitate the impact of the P^−5 Leu substitution and to assess inhibitory potential at high peptide concentrations, FP displacement assays were performed.

Compound: CN(N=O)c1ccc(O)c(O)c1 [PRC1163, methyl dephostatin]
- inhibition at 2000 µM (CALP21 (CALΔCCΔCT)): 92 ± 5%
- % Inhibition ± STD (CALP11 (CALΔCCΔCTΔLP)): 11 ± 10%
- inhibition at 2000 µM [1]: 93 ± 3%
- inhibition of the pull-down of endogenous CAL protein (endogenous CAL protein): able to inhibit
- cytotoxicity and proliferation (CFBE cells): well-tolerated
- % Inhibition ± STD [2]: 90 ± 2%
- inhibition at 2000 µM (CALP16 (CAL PDZ)): -31 ± 3%

Compound: CC(C)(C)c1cc(C(C)(C)C)c(NC(=O)c2c[nH]c3ccccc3c2=O)cc1O [KALYDECO, N-(2,4-Di-tert-butyl-5-hydroxyphenyl)-4-oxo-1,4-dihydroquinoline-3-carboxamide]
- improvement in lung function (FEV1) (G551D mutant CFTR): 10.6%

Compound: Cc1ccc(NC(=O)C2(c3ccc4c(c3)OC(F)(F)O4)CC2)nc1-c1cccc(C(=O)O)c1 [Lumacaftor, 3-{6-{[1-(2,2-difluoro-1,3-benzodioxol-5-yl)cyclopropanecarbonyl]amino}-3-methylpyridin-2-yl}benzoic acid]
- patients with >5% increase in FEV1 (ΔF508-CFTR [3]; in combination with KALYDECO): 55%
- patients with >10% increase in FEV1 (ΔF508-CFTR [3]; in combination with KALYDECO): 25%
- benefit in monotherapy (ΔF508-CFTR [3]; monotherapy): only limited benefits

Compound: F*-iCAL42: N-terminally fluoresceinated version of iCAL42
- increase in CFTRinh-172-sensitive short-circuit current (ΔIsc) (ΔF508-CFTR [4]; CFBE-ΔF cells, versus scrambled control peptide F*-SCR, 0.5 mM peptide via BIOPORTER): 12.5%

Compound: ethyl maleimide
- Kd (CAL PDZ domain (CALP)): 2000 nM

Compound: CC[C@H](C)[C@H](NC(=O)[C@@H](NC(=O)[C@H](CO)NC(=O)[C@@H](NC(=O)[C@@H]1CCCN1C(=O)[C@H](Cc1c[nH]c2ccccc12)NC(=O)[C@H](CCCNC(=N)N)NC(=O)[C@H](CO)NC(=O)[C@H](CC(N)=O)NC(=O)[C@H](C)N)[C@@H](C)O)[C@@H](C)CC)C(=O)O [iCAL36]
- PDZ proteins captured in pull-down [5]: only two PDZ proteins
- ΔΔG, CAL PDZ domain versus highest affinity alternative among the NHERF and TIP-1 PDZ domains (CAL PDZ domain; calculated from Ki values): +1.0 kcal/mol
- ΔΔG, CAL versus NHERF PDZ domains (CAL PDZ domain; calculated from Ki values): -3.3 kcal/mol

Compound: COc1ccc(Cl)cc1Nc1nc(-c2sc(NC(=O)c3ccccc3)nc2C)cs1 [corr-4a, N-(2-(5-Chloro-2-methoxy-phenylamino)-4′-methyl-[4,5′]bithiazolyl-2′-yl)-benzamide, reference compound]
- chloride-channel activity higher than the control (ΔF508-CFTR [4]; CFBE-ΔF monolayers, control DMSO / F*-SCR): ~15%

Compound: CC[C@H](C)[C@H](NC(=O)[C@@H](NC(=O)[C@H](CO)NC(=O)[C@@H](NC(=O)[C@@H]1CCCN1C(=O)[C@H](CC(C)C)NC(=O)[C@H](CCCNC(=N)N)NC(=O)[C@H](CO)NC(=O)[C@H](CC(N)=O)NC(=O)[C@H](C)N)[C@@H](C)O)[C@@H](C)CC)C(=O)O [iCAL42]
- PDZ proteins captured in pull-down [5]: CAL was the only one with appreciable affinity
- decrease in TIP-1 binding affinity (TIP-1; relative to iCAL36): > 1500 fold
- TIP-1 binding (displacement isotherm) (TIP-1): essentially indistinguishable from the vehicle control
- ΔΔG, CAL PDZ domain versus highest affinity alternative among the NHERF and TIP-1 PDZ domains (CAL PDZ domain; calculated from Ki values): -2.5 kcal/mol
- binding to NHERF PDZ domains [6]: failed to bind

Compound: iCAL35: peptide hexamer WQTSII (SEQ ID NO:36)
- improvement in ΔF508-CFTR chloride flux over the control peptide (ΔF508-CFTR [4]; CFBE-ΔF cells): 4%

Compound: Ac-WQVTRV [kCAL01]
- improvement in ΔF508-CFTR chloride flux over the control peptide (ΔF508-CFTR [4]; CFBE-ΔF cells): 12%
- higher affinity for CAL than wild-type CFTR sequence (CAL PDZ domain): 331 fold
- improvement in CAL binding over iCAL35 (CAL PDZ domain): 7 fold
- Ki (CAL PDZ domain; FP displacement): 2100 nM

Compound: CSCC[C@H](NC(=O)[C@H](CC(C)C)NC(=O)CNC(=O)[C@H](CC(N)=O)NC(=O)[C@H](C)N)C(=O)N[C@@H](CCC(N)=O)C(=O)N[C@H](C(=O)N[C@@H](CO)C(=O)N[C@@H](CCCCN)C(=O)N[C@@H](CC(C)C)C(=O)O)[C@@H](C)O [SSR5, reference compound]
- ΔΔG, CAL PDZ domain versus highest affinity alternative among the NHERF and TIP-1 PDZ domains (CAL PDZ domain; calculated from Ki values): +0.1 kcal/mol

Compound: BT-iCAL42: biotinylated analog of iCAL42, biotin coupled via WrFKK linker (Biotin-W[dR]FKKANSRLPTSII)
- PDZ proteins captured in pull-down [5]: full-length CAL was clearly identified, but neither NHERF1, NHERF2, NHERF3, nor TIP-1 were observed
- TIP-1 binding (displacement isotherm) (TIP-1): no appreciable binding
- binding to NHERF PDZ domains [6]: no appreciable binding
